The target in assay [1] is mushroom tyrosinase. Kind of assay: Mushroom tyrosinase inhibition assay (L-DOPA substrate, DOPA chrome at 470 nm). Type of assay: biochemical. The conditions noted are these: 37 °C, 30 min, pH 6.8, triplicate. On the procedure:
The tyrosinase inhibition assay was achieved according to a previously described method. Both the enzyme (tyrosinase, EC 1.14.18.1) and substrate (L-3,4-dihydroxyphenylalanine) (L-DOPA) were purchased from Sigma-Aldrich. All test compounds were first dissolved in 5% dimethyl sulfoxide (DMSO) (80 μL), and the tyrosinase inhibitory activity was evaluated at various concentrations (5 to 200 μM). The reaction mixture consisted of 40 μL of tyrosinase solution (125 unit/mL in 67 mM phosphate buffer, pH 6.8), 40 μL of L-DOPA (25 mM in 67 mM phosphate buffer, pH 6.8), and 80 μL of the test sample. After incubation at 37 °C for 30 min, the amount of released DOPA chrome was measured at 470 nm using an ELISA reader (Infinite F200, Tecan Austria GmBH, Grodig, Austria). The tyrosinase inhibition (%) was calculated, and the half-maximal inhibitory concentration (IC50) was evaluated using linear regression analysis of the inhibitory effects under the assay conditions. […] All assays were carried out in triplicate. Kinetic parameters were determined using the Lineweaver-Burk plots methods at increasing concentration of substrates and inhibitor. The data was calculated using Sigma-plot (SPCC Inc., Chicago, IL, USA).

In assay [2] the test system is mushroom tyrosinase. Kind of assay: Inhibition kinetics of tyrosinase-mediated L-DOPA oxidation (Lineweaver-Burk plots). Type of assay: biochemical. An excerpt:
Tyrosinase is a metalloenzyme that plays a primary role in the production of melanin from tyrosine when the skin is exposed to UV rays. Tyrosinase-related protein-1 (TRP-1) and dopachrome tautomerase (TRP-2) result in the formation of melanin as eumelanin (which appears black and brown) and pheomelanin (which appears yellow and red). Tyrosinase is present in epidermal melanocytes as well as in the pigment epithelia of the retina, iris, and ciliary body of the eye, and is one of the chief enzymes responsible for skin pigmentation in mammals. Melanin production can be inhibited by suppressing tyrosinase activity, thereby preventing the induction of melasma, freckles, and senile […]. […] Radiocatalytic hydrogenated molecules 1–4 obtained in the present study were evaluated for their inhibitory capacities toward mushroom tyrosinase. […]
The tyrosinase inhibition assay was achieved according to a previously described method. […] All test compounds were first dissolved in 5% dimethyl sulfoxide (DMSO) (80 μL), and the tyrosinase inhibitory activity was evaluated at various concentrations (5 to 200 μM). […] After incubation at 37 °C for 30 min, the amount of released DOPA chrome was measured at 470 nm using an ELISA reader (Infinite F200, Tecan Austria GmBH, Grodig, Austria). […] The data was calculated using Sigma-plot (SPCC Inc., Chicago, IL, USA).

SMILES strings stand for the structures.

For the compound `C[C@]1(CO)c2ccc(O)cc2OC(=O)[C@H]1CO` (relative stereo) [Compound 2, Radiocoumarone B], half-maximal inhibition on mushroom tyrosinase [1] (IC50) was put at 49 ± 1.3 µM.
The same measure, in the same setting: to `O=C1Oc2cc(O)ccc2[C@@](CO)(CCO)[C@@H]1CO` (relative stereo) [Compound 3, Radiocoumarone C] belongs 254.6 ± 2.1 µM.
On to `C[C@]1([C@@]2(C)c3ccc(O)cc3OC(=O)[C@H]2CO)c2ccc(O)cc2OC(=O)[C@H]1CO` (relative stereo) [Compound 4, Radiocoumarone D], for which, at mushroom tyrosinase [1], half-maximal inhibition (IC50) was put at 19.8 ± 0.5 µM. In addition, in the assay on mushroom tyrosinase [2], the “Inhibition Type” value was “Non-competitive” and affinity was put at a Ki of 16 µM.
As for `C[C@@]1(CO)CC(=O)Oc2cc(O)ccc21` (stereo in doubt) [Compound 1, Radiocoumarone A], the half-inhibitory concentration (IC50) at mushroom tyrosinase [1] stood at 143 ± 1.5 µM.
For `Cc1cc(=O)oc2cc(O)ccc12` [4-MUF (5), 4-methylumbelliferone, reference compound], the 50% inhibitory concentration (IC50) against mushroom tyrosinase [1] was greater than 500 µM.

Source of the values: paper PMC10820468, “Novel Dihydrocoumarins Induced by Radiolysis as Potent Tyrosinase Inhibitors” (Molecules, 2024).
